According to patent US5444042A, “Method of treatment of neurodegeneration with calpain inhibitors” (Cortex Pharmaceuticals, priority 1994, dated 1995):
Where a SMILES comes first, the peptide text is derived from it. The star is where a group is joined. CH2Cl = ClC*

Legend:
Calpain II = Calpain II KI (Table 1B(ii)); type: biochemical
From the text: (§1) We tested the ability of an additional group of Peptide Keto-Compounds to inhibit several proteases in order to evaluate their specificity for Calpain.

Cathepsin B = Cathepsin B (Bos taurus, UniProt P07688); test: Cathepsin B KI (Table 1B(ii)); type: biochemical; conditions: read-out: KI CathB
From the text: as §1

Chym = Chym (Bos taurus, UniProt P00766); test: Chym KI (Table 1B(ii)); type: biochemical
From the text: as §1

Stability in plasma = type: in vitro ADME; conditions: unit assumed
From the text: We determined the haft-life of several Peptide Keto-Compounds in both plasma and liver homogenates.

Calpain within platelets = test: Platelet membrane permeation assay, spectrin proteolysis (Examples 4A, 4B); type: cell-based, rat; conditions: for IC50: concentration at which 50% of the Calpain activation present in controls occurred; for inhibition of Calpain within platelets: A23187 1 μM
Procedure: Platelets were isolated by a modification of the method of Ferrell and Martin, J Biol. Chem., 264:20723-20729 (1989), the disclosure of which is hereby incorporated by reference. Blood (15-20 ml) was drawn from male Sprague-Dawley rats into 100 mM EDTA-citrate containing 10 units heparin, and centrifuged 30 minutes at 1600 rpm at room temperature. The plasma was resuspended in 15 ml buffer 1 (136 mM NaCl, 2.7 mM KCl, 0.42 mM NaH2 PO4, 12 mM NaHCO3, 2 mM MgCl2, 2 mg/ml BSA (Sigma), 5.6 mM glucose, 22 mM Na3 Citrate pH 6.5) and platelets were isolated at 2200 rpm at room temperature of 25 minutes. Platelets were resuspended to 10^7 cells/ml in buffer 2 (136 mM NaCl, 2.7 mM KCl, 0.42 NaH2 PO4, 12 mM NaHCO3, 2 mM MgCl, 1 mg/ml BSA, 5.6 mM glucose, 20 mM HEPES pH 7.4) and allowed to "rest" for a minimum of 10 minutes at room temperature before use.
Platelets were incubated for 5 minutes in the presence of inhibitor. In order to provide sufficient intracellular calcium to activate Calpain, the calcium ionophore A23187 was added to a final concentration of 1 μM. After a further 5 minute incubation, the platelets were harvested by centrifugation (1 min 10,000×g) and resuspended in 10% sodium dodecyl sulfate, 10 mM Tris pH=8.0, 5% β-mercaptoethanol, 0.02% bromophenol blue, and heated to 95° C. for 5 min. Samples were subjected to SDS-PAGE on 6% mini gels and transferred to nitrocellulose (Schleicher and Schuell BAS3) for 2 hours at 100 mA/gel in an LKB Novablot. Filters were blocked for 10 minutes in 0.25% gelatin, 1% BSA, 0.25% Triton X100, 0.9% NaCl, 10 mM Tris-Cl pH 7.5, incubated overnight in the same solution containing antibody to rat spectrin, washed 3×10 minutes with 10 mM Tris-Cl pH 7.5, 0.5 % Triton X100, incubated 4 hours in wash buffer plus alkaline phosphatase conjugated goat anti-rabbit antibody (Biorad), and washed as above. Filters were developed using the Biorad AP conjugate substrate kit. Spectrin immunoreactivity on the filters was quantitated by densitometry.

[1] = system: Calpain in crude brain extracts; test: Ca2+-stimulated spectrin proteolysis in crude brain extracts (Example 2); type: biochemical; conditions: 100 μM
Procedure: The activity of Calpain in crude brain extracts was measured by examining the Ca^2+ -stimulated proteolysis of the endogenous substrate spectrin. Brain tissue was homogenized in 10 mM Tris pH=7.4, 0.32M sucrose, 1 mM EGTA, 1 mM dithiothreitol and the nuclei and debris removed by low speed centrifugation. […] Proteolysis of spectrin was evaluated by western blot as described by Seubert, et at. (Brain Research, 459:226-232, 1988), the disclosure of which is hereby incorporated by reference. Briefly, a known quantity of a spectrin-containing sample treated with Calpain is separated by SDS-PAGE and immunoblotted with anti-spectrin antibody. The amount of spectrin immunoreactivity found corresponding to the characteristic BDP's is indicative of the amount of […] activity present in the sample. An examplary method for quantitating BDP's is to assay Spectrin BDP's by homogenizing brain parts in 20 mM Tris pH=7.2, 0.32M sucrose, 50 μM Ac-Leu-Leu-nLeu-H on ice. Homogenates are then mixed 1:1 with 10% SDS, 5% β-mercaptoethanol, 10% glycerol, 10 mM Tris pH=8.0, 0.5% bromophenolblue, heated to 95° C., and subjected to electrophoresis in 41/2% polyacrylamide gels. The proteins in the gels are transferred to nitrocellulose and the spectrin and BDP's detected using a rabbit polyclonal anti-spectrin antibody and established immunodetection methods. The amount of spectrin and BDP's in each sample can be quantitated by densitrometric scanning of the developed nitrocellulose.

PP Elastase = PP Elastase (Sus scrofa, UniProt P00772); test: PP Elastase KI (Table 1B(ii)); type: biochemical
Sequence of PP Elastase (P00772 27-266): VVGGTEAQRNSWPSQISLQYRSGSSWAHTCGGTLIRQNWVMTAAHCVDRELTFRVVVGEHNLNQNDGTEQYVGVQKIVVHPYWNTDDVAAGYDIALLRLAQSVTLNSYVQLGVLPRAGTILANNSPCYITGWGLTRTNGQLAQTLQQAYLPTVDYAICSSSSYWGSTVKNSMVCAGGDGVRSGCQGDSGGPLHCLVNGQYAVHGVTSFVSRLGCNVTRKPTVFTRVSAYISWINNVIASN
From the text: as §1

Calpain I = biological target: T1, Calpain I (Homo sapiens, UniProt P07384); test: Calpain I KI (Table 1B(ii)); type: biochemical; conditions: Table 1B(ii)
T1 sequence (P07384 1-714): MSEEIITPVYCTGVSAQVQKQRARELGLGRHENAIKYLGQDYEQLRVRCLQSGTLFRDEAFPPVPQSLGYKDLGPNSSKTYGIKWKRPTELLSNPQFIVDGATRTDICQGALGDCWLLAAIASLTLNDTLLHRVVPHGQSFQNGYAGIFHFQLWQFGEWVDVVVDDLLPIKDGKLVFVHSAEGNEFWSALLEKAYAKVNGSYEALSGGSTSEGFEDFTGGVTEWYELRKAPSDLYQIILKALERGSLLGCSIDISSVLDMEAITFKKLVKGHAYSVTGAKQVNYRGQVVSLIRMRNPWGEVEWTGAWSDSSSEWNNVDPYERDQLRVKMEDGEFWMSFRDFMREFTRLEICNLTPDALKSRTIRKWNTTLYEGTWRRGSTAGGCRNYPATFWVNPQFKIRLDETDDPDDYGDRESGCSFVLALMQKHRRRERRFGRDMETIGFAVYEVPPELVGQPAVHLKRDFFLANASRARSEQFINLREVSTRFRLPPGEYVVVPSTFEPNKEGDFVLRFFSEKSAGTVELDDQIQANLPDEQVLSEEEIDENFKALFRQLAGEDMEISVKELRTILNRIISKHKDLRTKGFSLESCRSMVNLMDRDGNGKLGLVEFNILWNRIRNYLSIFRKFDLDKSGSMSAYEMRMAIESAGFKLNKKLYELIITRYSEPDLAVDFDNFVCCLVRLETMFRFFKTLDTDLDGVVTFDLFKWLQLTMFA
T1 sequence (P04632 1-268 partner): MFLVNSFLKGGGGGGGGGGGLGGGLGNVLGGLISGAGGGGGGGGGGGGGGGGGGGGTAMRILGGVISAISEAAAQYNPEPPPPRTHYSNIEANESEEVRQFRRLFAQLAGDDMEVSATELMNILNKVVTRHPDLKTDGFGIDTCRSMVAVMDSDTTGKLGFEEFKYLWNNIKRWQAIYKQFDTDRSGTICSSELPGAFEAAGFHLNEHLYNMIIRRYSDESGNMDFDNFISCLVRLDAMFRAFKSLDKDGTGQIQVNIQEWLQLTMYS
From the text: as §1

Molecule: CC(C)CNC(=O)C(=O)[C@H](Cc1ccccc1)NC(=O)[C@H](CC(C)C)NC(=O)OCc1ccccc1 [Z-Leu-Phe-CONHiBu, Z-Leu-Phe-CONH-iBu]
- Ki (Calpain II): 0.065 µM
- Ki (Cathepsin B): 4 µM
- Ki (Chym): 24 µM
- t1/2 plasma (Stability in plasma): > 1 h
- IC50 (Calpain within platelets): 22 µM

Molecule: O=c1oc(Cl)cc2ccccc12 [3-chloroisocoumarin, reference compound]
- inhibition of spectrin proteolysis in crude brain extracts [1]: significant inhibition
- inhibition of Calpain within platelets (Calpain within platelets; 100 μM): significant inhibition

Molecule: CCCCCCCCNC(=O)C(=O)[C@H](CC)NC(=O)[C@H](CC(C)C)NC(=O)OCc1ccccc1 [Z-Leu-Abu-CONH-(CH2)7 CH3, Z-Leu-Abu-CONH--(CH2)7 CH3]
- Ki (Calpain II): 0.019 µM

Molecule: CC(C)C[C@H](NC(=O)OCc1ccccc1)C(=O)N[C@@H](Cc1ccccc1)C(=O)C(=O)NCc1ccccc1 [Z-Leu-Phe-CONHBz, Z-Leu-Phe-CONH-Bzl]
- Ki (Calpain II): 0.046 µM

Molecule: N=C(N)SCCCOc1oc(=O)c2cc(NC(=O)CCc3ccccc3)ccc2c1Cl [7-(3-phenylpropionylamino)-4-chloro-3-(3-isothiureidopropoxy)isocoumarin]
- inhibition of spectrin proteolysis in crude brain extracts [1]: significant inhibition
- inhibition of Calpain within platelets (Calpain within platelets; 100 μM): significant inhibition

Molecule: O=c1oc(Cl)c(Cl)c2ccccc12 [3,4-dichloroisocoumarin, reference compound]
- inhibition of spectrin proteolysis in crude brain extracts [1]: significant inhibition

Molecule: CCCOc1oc(=O)c2cc(NC(C)=O)ccc2c1Cl [7-(acetylamino)-4-chloro-3-(propoxy)-isocoumarin]
- inhibition of spectrin proteolysis in crude brain extracts [1]: significant inhibition

Molecule: N=C(N)SCCCOc1oc(=O)c2cc(NC(=O)Cc3ccccc3)ccc2c1Cl [7-(phenylacetylamino)-4-chloro-3-(3-isothiureidopropoxy)isocoumarin]
- inhibition of spectrin proteolysis in crude brain extracts [1]: significant inhibition
- inhibition of Calpain within platelets (Calpain within platelets; 100 μM): significant inhibition

Molecule: N=C(N)SCCCOc1oc(=O)c2cc(NC(=O)Nc3ccccc3)ccc2c1Cl [7-(phenylcarbamoylamino)-4-chloro-3-(3-isothiureidopropoxy)isocoumarin]
- inhibition of spectrin proteolysis in crude brain extracts [1]: significant inhibition
- inhibition of Calpain within platelets (Calpain within platelets; 100 μM): significant inhibition

Molecule: CCC(NC(=O)C(CC(C)C)NC(=O)OCc1ccccc1)C(=O)C(=O)NCC(C)C (stereo not drawn) [Z-Leu-Abu-CONHiBu, Z-Leu-Abu-CONH-iBu]
- Ki (Calpain II): 0.14 µM
- Ki (Cathepsin B): 4 µM
- Ki (Chym): > 300 µM
- Ki (PP Elastase): 40 µM
- t1/2 plasma (Stability in plasma): > 1 h
- IC50 (Calpain within platelets): 28 µM

Molecule: N=C(N)SCCOc1oc(=O)c2cc(NC(=O)Nc3ccccc3)ccc2c1Cl [7-(phenylcarbamoylamino)-4-chloro-3-(2-isothiureidoethoxy)isocoumarin]
- inhibition of spectrin proteolysis in crude brain extracts [1]: significant inhibition
- inhibition of Calpain within platelets (Calpain within platelets; 100 μM): significant inhibition

Molecule: CC[C@H](NC(=O)[C@H](CC(C)C)NC(=O)OCc1ccccc1)C(=O)C(=O)NCCc1ccccc1 [Z-Leu-Abu-CONH-(CH2)2 -Ph, Z-Leu-Abu-CONH-(CH2)2 Ph]
- Ki (Calpain II): 0.022 µM

Molecule: CCC(NC(=O)C(CC(C)C)NC(=O)OCc1ccccc1)C(=O)C(=O)NCCO (stereo not drawn) [Z-Leu-Abu-CONH-(CH2)2 OH]
- Ki (Calpain II): 0.078 µM

Molecule: CC(C)C[C@H](NC(=O)OCc1ccccc1)C(=O)N[C@@H](Cc1ccccc1)C(=O)C(=O)NCCc1ccccc1 [Z-Leu-Phe-CONH(CH2)2 Ph, Z-Leu-Phe-CONH-(CH2)2 Ph]
- Ki (Calpain II): 0.024 µM
- Ki (Chym): 2 µM
- t1/2 plasma (Stability in plasma): > 1 h
- IC50 (Calpain within platelets): 3 µM

Molecule: CC[C@H](NC(=O)[C@H](CC(C)C)NC(=O)OCc1ccccc1)C(=O)C(=O)NCCCN1CCOCC1 [Z-Leu-Abu-CONH-(CH2)3 -Mpl, Z-Leu-Abu-CONH--(CH2)3 -N(CH2 CH2)2 O]
- Ki (Calpain II): 0.041 µM

Molecule: Z-Leu-Abu
- inhibition of Calpain within platelets (Calpain within platelets; 100 μM): significant inhibition

Molecule: CC(=O)NC(C(=O)NC(Cc1ccccc1)C(=O)CCl)C(C)C (stereo not drawn) [Ac-Val-Phe-CH2Cl] (Ac-Val-Phe-CH2Cl; configuration not given here)
- inhibition of spectrin proteolysis in crude brain extracts [1]: significant inhibition

Molecule: O=c1oc(OCc2ccccc2)c(Cl)c2ccccc12 [3-benzyloxy-4-chloroisocoumarin]
- inhibition of spectrin proteolysis in crude brain extracts [1]: significant inhibition

Molecule: CCOC(=O)C(=O)[C@H](CC)NC(=O)[C@H](CC(C)C)NC(=O)[C@H](CC(C)C)NC(=O)c1ccc2ccccc2c1 [2-NapCO-Leu-Leu-Abu-COOEt]
- Ki (Calpain II): 0.09 µM
- Ki (Chym): > 300 µM
- Ki (PP Elastase): 28 µM
- t1/2 plasma (Stability in plasma): 0.417 h

Molecule: CCOC(=O)C(=O)C(CC)NC(=O)C(CC(C)C)NC(=O)C(C)(C)c1ccccc1 (stereo not drawn) [Ph-(CH3)2 -CO-Leu-Abu-COOEt]
- Ki (Calpain II): 1.2 µM

Molecule: CCOC(=O)C(=O)C(CC)NC(=O)C(CC(C)C)NC(=O)C(CC(C)C)NC(=O)OCc1ccccc1 (stereo not drawn) [Z-Leu-Leu-Abu-COOEt]
- Ki (Calpain II): 2.6 µM
- Ki (Cathepsin B): 22 µM
- Ki (Chym): > 100 µM
- Ki (PP Elastase): 25 µM
- inhibition of Calpain within platelets (Calpain within platelets; 100 μM): significant inhibition
- IC50 (Calpain within platelets): 40 µM

Molecule: CC[C@H](NC(=O)[C@H](CC(C)C)NC(=O)OCc1ccccc1)C(=O)C(=O)OCc1ccccc1 [Z-Leu-Abu-COOBz, Z-Leu-Abu-CO2 Bzl]
- Ki (Calpain I): 9.5 µM
- Ki (Calpain II): 0.47 µM
- Ki (Cathepsin B): 4 µM
- Ki (Chym): 40 µM
- Ki (PP Elastase): > 100 µM
- inhibition of Calpain within platelets (Calpain within platelets; 100 μM): significant inhibition
- platelet assay, semi-quantitative (Calpain within platelets; semi-quantitative, 100 μM): ++

Molecule: CCOC(=O)C(=O)C(CC)NC(=O)C(CC(C)C)NS(=O)(=O)c1ccc2ccccc2c1 (stereo not drawn) [2-NapSO2 -Leu-Abu-COOEt]
- inhibition of Calpain within platelets (Calpain within platelets; 100 μM): significant inhibition
